For seven cell lines, relative viability results are on record in the supplement of paper PMC10307832.

Common to all, as to assay: relative viability (nuclei count vs DMSO), 5 days (fraction); higher = more cells survive
Compound in the assay “Zosuquidar + Navitoclax”: O[C@@H](COc1cccc2ncccc12)CN1CCN([C@@H]2c3ccccc3[C@@H]3[C@H](c4ccccc42)C3(F)F)CC1 [Zosuquidar] + CC1(C)CCC(c2ccc(Cl)cc2)=C(CN2CCN(c3ccc(C(=O)NS(=O)(=O)c4ccc(N[C@H](CCN5CCOCC5)CSc5ccccc5)c(S(=O)(=O)C(F)(F)F)c4)cc3)CC2)C1 [Navitoclax] (partner 0.5 µM)
In short, it runs like this:
(§1)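 The day after seeding in 1536-well plates, lung cancer cell lines were treated by pin tool with a single drug, or with a fixed anchor-drug dose together with five library-drug doses (not always all listed) in √10 steps. After 5 days, a combined fix-and-stain solution (final 0.05% Triton X-100, 1% formaldehyde, 1 ug/ml Hoechst) was added. Nuclei counted on 4× images gave relative viability as treated counts over vehicle counts, reported as the median of duplicate plates.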

Compound in the assay “Zosuquidar + Dasatinib”: O[C@@H](COc1cccc2ncccc12)CN1CCN([C@@H]2c3ccccc3[C@@H]3[C@H](c4ccccc42)C3(F)F)CC1 [Zosuquidar] + Cc1nc(Nc2ncc(C(=O)Nc3c(C)cccc3Cl)s2)cc(N2CCN(CCO)CC2)n1 [Dasatinib] (partner 0.075 µM)
In outline: as §1

Compound in the assay “Zosuquidar + Pemetrexed”: O[C@@H](COc1cccc2ncccc12)CN1CCN([C@@H]2c3ccccc3[C@@H]3[C@H](c4ccccc42)C3(F)F)CC1 [Zosuquidar] + Nc1nc2[nH]cc(CCc3ccc(C(=O)N[C@@H](CCC(=O)O)C(=O)O)cc3)c2c(=O)[nH]1 [Pemetrexed] (partner 0.2 µM)
In outline:
as §1

Compound in the assay “Zosuquidar + Foretinib”: O[C@@H](COc1cccc2ncccc12)CN1CCN([C@@H]2c3ccccc3[C@@H]3[C@H](c4ccccc42)C3(F)F)CC1 [Zosuquidar] + COc1cc2c(Oc3ccc(NC(=O)C4(C(=O)Nc5ccc(F)cc5)CC4)cc3F)ccnc2cc1OCCCN1CCOCC1 [Foretinib] (partner 0.25 µM)
In outline: as §1

NCI-H2087: the relative viability in the assay with Zosuquidar + Navitoclax (first compound 0.01 µM) stood at 0.968; with Zosuquidar + Navitoclax (first compound 0.03162 µM), 0.994; in the assay with Zosuquidar + Navitoclax (first compound 0.1 µM), 0.965; with Zosuquidar + Navitoclax (first compound 0.3162 µM), 1.18; with Zosuquidar + Navitoclax (first compound 1 µM) it was 1.08; in the assay with Zosuquidar + Dasatinib (first compound 0.01 µM), 0.773. For the same cell line, the relative viability worked out at 0.668 with Zosuquidar + Dasatinib (first compound 0.1 µM); 0.91 with Zosuquidar + Dasatinib (first compound 0.3162 µM); 0.919 in the assay with Zosuquidar + Dasatinib (first compound 1 µM); 0.597 with Zosuquidar + Pemetrexed (first compound 0.01 µM); 0.667 with Zosuquidar + Pemetrexed (first compound 0.03162 µM); 0.62 with Zosuquidar + Pemetrexed (first compound 0.1 µM). The relative viability with Zosuquidar + Pemetrexed (first compound 0.3162 µM) turned out to be 0.643; with Zosuquidar + Pemetrexed (first compound 1 µM), 0.637; with Zosuquidar + Foretinib (first compound 0.01 µM), 1; in the assay with Zosuquidar + Foretinib (first compound 0.1 µM), 0.992; with Zosuquidar + Foretinib (first compound 0.3162 µM), 1.21; in the assay with Zosuquidar + Foretinib (first compound 1 µM), 1.12.

With NCI-H2126, the relative viability with Zosuquidar + Navitoclax (first compound 0.01 µM) amounted to 0.79; in the assay with Zosuquidar + Navitoclax (first compound 0.03162 µM), 0.845; in the assay with Zosuquidar + Navitoclax (first compound 0.1 µM), 0.741; in the assay with Zosuquidar + Navitoclax (first compound 0.3162 µM), 0.889; with Zosuquidar + Navitoclax (first compound 1 µM), 0.845; in the assay with Zosuquidar + Dasatinib (first compound 0.01 µM), 0.581. The relative viability is 0.599 with Zosuquidar + Dasatinib (first compound 0.03162 µM); 0.639 with Zosuquidar + Dasatinib (first compound 0.3162 µM); 0.61 with Zosuquidar + Dasatinib (first compound 1 µM); 0.677 with Zosuquidar + Pemetrexed (first compound 0.01 µM); 0.625 with Zosuquidar + Pemetrexed (first compound 0.03162 µM); 0.51 in the assay with Zosuquidar + Pemetrexed (first compound 0.1 µM). In addition, the relative viability with Zosuquidar + Pemetrexed (first compound 0.3162 µM) turned out to be 0.697; with Zosuquidar + Pemetrexed (first compound 1 µM), 0.737; in the assay with Zosuquidar + Foretinib (first compound 0.01 µM) it was 1.17; with Zosuquidar + Foretinib (first compound 0.03162 µM), 1.09; in the assay with Zosuquidar + Foretinib (first compound 0.3162 µM) it was 1.18; in the assay with Zosuquidar + Foretinib (first compound 1 µM), 1.23.

In the case of NCI-H2170, the relative viability was 0.651 with Zosuquidar + Navitoclax (first compound 0.01 µM); 0.626 with Zosuquidar + Navitoclax (first compound 0.03162 µM); 0.557 with Zosuquidar + Navitoclax (first compound 0.1 µM); 0.673 with Zosuquidar + Navitoclax (first compound 0.3162 µM); 0.571 with Zosuquidar + Navitoclax (first compound 1 µM); 0.464 with Zosuquidar + Dasatinib (first compound 0.01 µM). For the same cell line, the relative viability in the assay with Zosuquidar + Dasatinib (first compound 0.03162 µM) stood at 0.661; with Zosuquidar + Dasatinib (first compound 0.1 µM) it was 0.636; with Zosuquidar + Dasatinib (first compound 0.3162 µM), 0.767; with Zosuquidar + Dasatinib (first compound 1 µM), 0.58; with Zosuquidar + Pemetrexed (first compound 0.01 µM) it was 0.283; with Zosuquidar + Pemetrexed (first compound 0.03162 µM), 0.263. The relative viability was 0.263 in the assay with Zosuquidar + Pemetrexed (first compound 0.1 µM); 0.269 in the assay with Zosuquidar + Pemetrexed (first compound 0.3162 µM); 0.255 with Zosuquidar + Pemetrexed (first compound 1 µM); 0.979 with Zosuquidar + Foretinib (first compound 0.01 µM); 1.02 with Zosuquidar + Foretinib (first compound 0.03162 µM); 0.993 with Zosuquidar + Foretinib (first compound 0.1 µM). Besides, the relative viability with Zosuquidar + Foretinib (first compound 0.3162 µM) and with Zosuquidar + Foretinib (first compound 1 µM) was 1.02 throughout.

NCI-H2228: the relative viability with Zosuquidar + Navitoclax (first compound 0.01 µM) amounted to 1.12; in the assay with Zosuquidar + Navitoclax (first compound 0.03162 µM) it was 0.679; with Zosuquidar + Navitoclax (first compound 0.1 µM), 0.922; in the assay with Zosuquidar + Navitoclax (first compound 0.3162 µM), 1.12; in the assay with Zosuquidar + Navitoclax (first compound 1 µM), 0.775; with Zosuquidar + Dasatinib (first compound 0.01 µM) it was 0.507. Moreover, the relative viability came out at 0.573 with Zosuquidar + Dasatinib (first compound 0.03162 µM); 0.612 in the assay with Zosuquidar + Dasatinib (first compound 0.1 µM); 0.621 with Zosuquidar + Dasatinib (first compound 0.3162 µM); 0.551 with Zosuquidar + Dasatinib (first compound 1 µM); 0.359 with Zosuquidar + Pemetrexed (first compound 0.01 µM); 0.302 with Zosuquidar + Pemetrexed (first compound 0.03162 µM). The relative viability in the assay with Zosuquidar + Pemetrexed (first compound 0.1 µM) was 0.315; with Zosuquidar + Pemetrexed (first compound 0.3162 µM), 0.324; with Zosuquidar + Pemetrexed (first compound 1 µM) it was 0.361; with Zosuquidar + Foretinib (first compound 0.01 µM), 0.933; with Zosuquidar + Foretinib (first compound 0.03162 µM), 0.438; in the assay with Zosuquidar + Foretinib (first compound 0.1 µM) it was 0.995. The relative viability stood at 0.768 with Zosuquidar + Foretinib (first compound 0.3162 µM) and 0.714 in the assay with Zosuquidar + Foretinib (first compound 1 µM).

As for NCI-H2347, the relative viability is 0.891 in the assay with Zosuquidar + Navitoclax (first compound 0.01 µM); 0.686 with Zosuquidar + Navitoclax (first compound 0.03162 µM); 0.583 in the assay with Zosuquidar + Navitoclax (first compound 0.1 µM); 0.931 in the assay with Zosuquidar + Navitoclax (first compound 0.3162 µM); 0.944 in the assay with Zosuquidar + Navitoclax (first compound 1 µM); 0.321 with Zosuquidar + Dasatinib (first compound 0.01 µM). For the same cell line, the relative viability in the assay with Zosuquidar + Dasatinib (first compound 0.03162 µM) stood at 0.384; with Zosuquidar + Dasatinib (first compound 0.1 µM) it was 0.253; with Zosuquidar + Dasatinib (first compound 0.3162 µM) it was 0.309; with Zosuquidar + Dasatinib (first compound 1 µM), 0.351; with Zosuquidar + Pemetrexed (first compound 0.01 µM), 0.425; in the assay with Zosuquidar + Pemetrexed (first compound 0.03162 µM) it was 0.34. The relative viability was found to be 0.413 in the assay with Zosuquidar + Pemetrexed (first compound 0.1 µM); 0.432 with Zosuquidar + Pemetrexed (first compound 0.3162 µM); 0.483 with Zosuquidar + Pemetrexed (first compound 1 µM); 1.01 in the assay with Zosuquidar + Foretinib (first compound 0.01 µM); 1.06 in the assay with Zosuquidar + Foretinib (first compound 0.03162 µM); 0.556 with Zosuquidar + Foretinib (first compound 0.1 µM). Besides, the relative viability was determined as 0.978 in the assay with Zosuquidar + Foretinib (first compound 0.3162 µM) and 0.869 in the assay with Zosuquidar + Foretinib (first compound 1 µM).

For NCI-H2405, the relative viability with Zosuquidar + Navitoclax (first compound 0.01 µM) came out at 1.01; in the assay with Zosuquidar + Navitoclax (first compound 0.03162 µM), 0.853; with Zosuquidar + Navitoclax (first compound 0.1 µM) it was 0.723; with Zosuquidar + Navitoclax (first compound 0.3162 µM), 1.07; in the assay with Zosuquidar + Navitoclax (first compound 1 µM) it was 0.894; with Zosuquidar + Dasatinib (first compound 0.01 µM) it was 0.208. Besides, the relative viability amounted to 0.174 with Zosuquidar + Dasatinib (first compound 0.03162 µM); 0.208 in the assay with Zosuquidar + Dasatinib (first compound 0.1 µM); 0.228 with Zosuquidar + Dasatinib (first compound 0.3162 µM); 0.215 with Zosuquidar + Dasatinib (first compound 1 µM); 1.08 with Zosuquidar + Pemetrexed (first compound 0.01 µM); 0.914 with Zosuquidar + Pemetrexed (first compound 0.03162 µM). Moreover, the relative viability in the assay with Zosuquidar + Pemetrexed (first compound 0.1 µM) was 0.956; in the assay with Zosuquidar + Pemetrexed (first compound 0.3162 µM), 1.2; with Zosuquidar + Pemetrexed (first compound 1 µM), 0.23; with Zosuquidar + Foretinib (first compound 0.01 µM), 1.05; with Zosuquidar + Foretinib (first compound 0.03162 µM), 1.06; in the assay with Zosuquidar + Foretinib (first compound 0.1 µM), 0.946. Moreover, the relative viability came out at 1.05 in the assay with Zosuquidar + Foretinib (first compound 0.3162 µM) and 1.04 with Zosuquidar + Foretinib (first compound 1 µM).

Regarding NCI-H3122, the relative viability in the assay with Zosuquidar + Navitoclax (first compound 0.01 µM) came to 1.04; in the assay with Zosuquidar + Navitoclax (first compound 0.03162 µM), 0.98; with Zosuquidar + Navitoclax (first compound 0.1 µM), 1.05; with Zosuquidar + Navitoclax (first compound 0.3162 µM), 1.02; in the assay with Zosuquidar + Navitoclax (first compound 1 µM) it was 1.01; with Zosuquidar + Dasatinib (first compound 0.01 µM), 0.666. The relative viability in the assay with Zosuquidar + Dasatinib (first compound 0.03162 µM) was 0.653; with Zosuquidar + Dasatinib (first compound 0.1 µM), 0.787; with Zosuquidar + Dasatinib (first compound 0.3162 µM), 0.863; in the assay with Zosuquidar + Dasatinib (first compound 1 µM), 0.914; with Zosuquidar + Pemetrexed (first compound 0.01 µM), 0.19; with Zosuquidar + Pemetrexed (first compound 0.03162 µM), 0.188. For the same cell line, the relative viability in the assay with Zosuquidar + Pemetrexed (first compound 0.1 µM) stood at 0.192; with Zosuquidar + Pemetrexed (first compound 0.3162 µM) it was 0.19; with Zosuquidar + Pemetrexed (first compound 1 µM), 0.204; with Zosuquidar + Foretinib (first compound 0.01 µM), 0.891; with Zosuquidar + Foretinib (first compound 0.03162 µM) it was 0.922; with Zosuquidar + Foretinib (first compound 0.1 µM) it was 0.909. In addition, the values for the relative viability with Zosuquidar + Foretinib (first compound 0.3162 µM) and with Zosuquidar + Foretinib (first compound 1 µM) were 0.934 and 0.955, respectively.
